Experimental data taken from the NIST ThermoML archive (doi:10.1016/j.jct.2011.02.018).

Experiment: xn = mol fraction of the nth substance listed
Settings: 101 kPa, Liquid; for viscosity: Concentric cylinders viscometry; for mass density: Vibrating tube method

COC(C)(C)C [2-methoxy-2-methylpropane] + CCCCCO
Settings | mass density, 293.15 K [kg/m3] | mass density, 298.15 K [kg/m3] | mass density, 303.15 K [kg/m3] | mass density, 308.15 K [kg/m3] | viscosity, 293.15 K [mPa·s] | viscosity, 298.15 K [mPa·s] | viscosity, 303.15 K [mPa·s] | viscosity, 308.15 K [mPa·s]
x1 = 0.0105 | 813.89 | 810.25 | 806.55 | 802.82 | 3.895 | 3.372 | 2.932 | 2.562
x1 = 0.0197 | 813.34 | 809.68 | 805.95 | 802.2 | 3.775 | 3.273 | 2.852 | 2.493
x1 = 0.0321 | 812.56 | 808.89 | 805.15 | 801.39 | 3.615 | 3.143 | 2.743 | 2.406
x1 = 0.0401 | 812.06 | 808.37 | 804.63 | 800.86 | 3.516 | 3.059 | 2.675 | 2.344
x1 = 0.0506 | 811.39 | 807.69 | 803.93 | 800.15 | 3.394 | 2.958 | 2.588 | 2.274
x1 = 0.0595 | 810.83 | 807.12 | 803.35 | 799.56 | 3.292 | 2.872 | 2.517 | 2.214
x1 = 0.0699 | 810.18 | 806.45 | 802.67 | 798.87 | 3.176 | 2.778 | 2.438 | 2.149
x1 = 0.0811 | 809.49 | 805.73 | 801.94 | 798.11 | 3.061 | 2.683 | 2.357 | 2.079
x1 = 0.0901 | 808.93 | 805.14 | 801.33 | 797.5 | 2.97 | 2.606 | 2.294 | 2.028
x1 = 0.1042 | 808.03 | 804.23 | 800.41 | 796.55 | 2.841 | 2.495 | 2.214 | 1.949
x1 = 0.1506 | 805.02 | 801.2 | 797.3 | 793.39 | 2.45 | 2.168 | 1.927 | 1.716
x1 = 0.2078 | 801.27 | 797.36 | 793.4 | 789.41 | 2.058 | 1.837 | 1.648 | 1.473
x1 = 0.252 | 798.32 | 794.34 | 790.33 | 786.28 | 1.809 | 1.619 | 1.457 | 1.312
x1 = 0.301 | 795.01 | 790.96 | 786.88 | 782.75 | 1.574 | 1.418 | 1.281 | 1.159
x1 = 0.3492 | 791.65 | 787.57 | 783.41 | 779.21 | 1.387 | 1.254 | 1.135 | 1.033
x1 = 0.3996 | 788.14 | 783.99 | 779.75 | 775.48 | 1.207 | 1.098 | 1 | 0.9139
x1 = 0.4577 | 784 | 779.75 | 775.42 | 771.06 | 1.042 | 0.953 | 0.8735 | 0.8008
x1 = 0.4985 | 781.06 | 776.76 | 772.36 | 767.93 | 0.9442 | 0.8668 | 0.7962 | 0.7313
x1 = 0.5512 | 777.21 | 772.8 | 768.33 | 763.81 | 0.8364 | 0.7702 | 0.7102 | 0.6515
x1 = 0.5999 | 773.61 | 769.09 | 764.55 | 759.95 | 0.7504 | 0.6941 | 0.6401 | 0.5895
x1 = 0.6506 | 769.72 | 765.16 | 760.51 | 755.83 | 0.6719 | 0.6222 | 0.5765 | 0.5309
x1 = 0.6986 | 766.04 | 761.39 | 756.67 | 751.9 | 0.606 | 0.5627 | 0.5215 | 0.4812
x1 = 0.7451 | 762.49 | 757.72 | 752.92 | 748.06 | 0.5517 | 0.5167 | 0.4765 | 0.4421
x1 = 0.7976 | 758.12 | 753.3 | 748.39 | 743.42 | 0.4971 | 0.4653 | 0.4332 | 0.4011
x1 = 0.8534 | 753.55 | 748.61 | 743.59 | 738.51 | 0.4455 | 0.4172 | 0.3868 | 0.3584
x1 = 0.898 | 749.74 | 744.73 | 739.63 | 734.47 | 0.4101 | 0.3855 | 0.3594 | 0.3315
x1 = 0.9098 | 748.75 | 743.7 | 738.59 | 733.41 | 0.4017 | 0.3772 | 0.3526 | 0.3257
x1 = 0.9195 | 747.92 | 742.85 | 737.72 | 732.53 | 0.3954 | 0.3701 | 0.3467 | 0.3192
x1 = 0.9289 | 747.1 | 742.01 | 736.85 | 731.64 | 0.388 | 0.3658 | 0.3396 | 0.3137
x1 = 0.9419 | 745.96 | 740.85 | 735.67 | 730.43 | 0.3807 | 0.3564 | 0.3307 | 0.3102
x1 = 0.9495 | 745.29 | 740.17 | 734.96 | 729.72 | 0.3752 | 0.354 | 0.3276 | 0.3054
x1 = 0.9594 | 744.4 | 739.28 | 734.04 | 728.78 | 0.3682 | 0.3458 | 0.3227 | 0.3007
x1 = 0.9688 | 743.56 | 738.42 | 733.17 | 727.88 | 0.3623 | 0.3405 | 0.317 | 0.2966
x1 = 0.9792 | 742.63 | 737.46 | 732.2 | 726.89 | 0.3563 | 0.3352 | 0.3104 | 0.2916
x1 = 0.9902 | 741.63 | 736.44 | 731.16 | 725.83 | 0.3533 | 0.3291 | 0.3035 | 0.2863
